Key:
Assay in all cases: relative viability (nuclei count vs DMSO), 5 days (fraction); higher = more cells survive
[1] = compound: C1=CC2=C(C=CC(=C2)C=C3C(=O)NC(=NCC4=CC=CS4)S3)N=C1 [RO-3306] + CC(=O)Nc1cccc(-n2c(=O)n(C3CC3)c(=O)c3c(Nc4ccc(I)cc4F)n(C)c(=O)c(C)c32)c1 [Trametinib] (partner 0.02 µM)
How it was run: (§1)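 Lung cancer cell lines, seeded in 1536-well plates, were treated the following day by pin tool with a single drug or with five library-drug doses (not always all listed) in √10 steps on top of a fixed anchor-drug dose. Cells were fixed and nuclei stained in one step after 5 days, and nuclei were counted. Relative viability is the nuclei count for treated wells divided by that for vehicle wells, reported as medians of duplicate plates.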

[2] = compound: C1=CC2=C(C=CC(=C2)C=C3C(=O)NC(=NCC4=CC=CS4)S3)N=C1 [RO-3306] + COc1cc2c(Oc3ccc(NC(=O)C4(C(=O)Nc5ccc(F)cc5)CC4)cc3F)ccnc2cc1OCCCN1CCOCC1 [Foretinib] (partner 0.25 µM)
How it was run: as §1

[3] = compound: C1=CC2=C(C=CC(=C2)C=C3C(=O)NC(=NCC4=CC=CS4)S3)N=C1 [RO-3306] + C[C@@H](Oc1cc(-c2cnn(C3CCNCC3)c2)cnc1N)c1c(Cl)ccc(F)c1Cl [Crizotinib] (partner 1 µM)
How it was run: as §1

[4] = compound: C1=CC2=C(C=CC(=C2)C=C3C(=O)NC(=NCC4=CC=CS4)S3)N=C1 [RO-3306] + Nc1ncn([C@H]2C[C@H](O)[C@@H](CO)O2)c(=O)n1 [Decitabine] (partner 2 µM)
How it was run: as §1

Cell Line	relative viability ([1]; first compound 0.01 µM)	relative viability ([1]; first compound 0.03162 µM)	relative viability ([1]; first compound 0.1 µM)	relative viability ([1]; first compound 0.3162 µM)	relative viability ([1]; first compound 1 µM)	relative viability ([2]; first compound 0.01 µM)	relative viability ([2]; first compound 0.03162 µM)	relative viability ([2]; first compound 0.1 µM)	relative viability ([2]; first compound 0.3162 µM)	relative viability ([2]; first compound 1 µM)	relative viability ([3]; first compound 0.01 µM)	relative viability ([3]; first compound 0.03162 µM)	relative viability ([3]; first compound 0.1 µM)	relative viability ([3]; first compound 0.3162 µM)	relative viability ([3]; first compound 1 µM)	relative viability ([4]; first compound 0.01 µM)	relative viability ([4]; first compound 0.03162 µM)	relative viability ([4]; first compound 0.1 µM)	relative viability ([4]; first compound 0.3162 µM)	relative viability ([4]; first compound 1 µM)
A-427	0.782	0.802	0.679	0.758	0.669	0.923	0.937	1.07	1.06	1.13	1.02	0.883	0.904	0.955	0.845	0.615	0.545	0.543	0.572	0.568
PC-14	0.827	0.607	0.614	0.78	0.766	0.968	0.739	0.935	1.04	0.917	0.977	0.841	1.03	0.864	0.836	0.196	0.209	0.222	0.277	0.244
NCI-H1648	0.482	–	0.47	0.538	0.404	–	–	–	–	–	–	–	–	–	–	0.545	–	0.357	0.47	0.472
NCI-H1437	0.539	0.409	0.54	0.543	0.527	1.38	1.21	1.28	1.28	1.25	1.13	0.682	0.988	1.01	1.03	0.59	0.513	0.549	0.596	0.631
201T	0.691	0.727	0.706	0.725	0.671	1.28	1.27	1.01	1.03	0.613	1.07	1.03	0.998	0.992	1.02	0.824	0.849	0.879	0.855	0.893
EBC-1	–	–	–	–	–	0.0936	0.118	0.101	0.121	0.0921	0.206	0.233	0.202	0.181	0.205	–	–	–	–	–
LCLC-97TM1	0.214	0.186	0.191	0.204	0.165	0.928	0.866	0.927	0.9	1.01	–	0.379	0.313	0.338	0.31	0.203	0.223	0.196	0.229	0.266
NCI-H522	0.652	0.521	0.664	0.712	0.666	–	–	–	–	–	–	–	–	–	–	0.736	0.544	0.712	0.775	0.638
NCI-H1395	1.24	0.983	0.886	1.1	0.916	0.981	0.902	0.895	0.945	0.824	–	–	–	–	–	0.663	0.699	0.656	0.68	0.724
Calu-6	–	–	–	–	–	0.948	0.957	0.973	0.942	0.82	0.909	0.774	0.802	0.804	0.768	–	–	–	–	–
NCI-H2228	0.541	0.43	0.436	0.62	0.281	0.759	0.808	0.954	0.641	0.635	0.471	0.335	0.408	0.445	0.541	–	–	–	–	–
NCI-H1299	–	–	–	–	–	1.17	1.1	1.15	1.14	1.17	1.02	0.943	0.998	0.988	0.991	–	–	–	–	–
SW 900	0.885	0.742	0.752	0.663	0.804	0.965	1.12	0.68	0.806	0.644	–	–	–	–	–	0.45	0.425	0.42	0.404	0.549
ABC-1	–	–	–	–	–	1.06	0.975	0.999	1.1	1.06	1.21	0.85	1.12	1.18	1.44	0.953	0.904	0.828	1.03	1.06
A549	–	–	–	–	–	1.1	0.891	1	0.883	0.818	0.872	0.705	0.751	0.687	0.706	0.284	–	0.245	0.254	0.36
NCI-H1793	0.479	–	0.408	0.43	0.513	0.654	0.265	0.627	0.748	0.735	–	–	–	–	–	0.415	–	0.403	0.49	0.493
CAL-12T	0.374	0.302	0.309	0.245	0.324	1.18	1.06	1.16	1.07	1.23	0.57	0.49	0.531	0.63	0.508	–	–	–	–	–
NCI-H1623	–	–	–	–	–	0.908	0.749	0.761	0.823	0.739	–	–	–	–	–	–	–	–	–	–
NCI-H1703	–	–	–	–	–	0.392	–	0.325	0.389	0.345	0.951	0.418	0.719	0.91	0.568	–	–	–	–	–
HCC-44	1.06	0.933	1.15	1.13	1.08	–	–	–	–	–	0.825	0.83	0.881	0.835	0.818	0.951	0.95	1.02	0.917	0.956
NCI-H1792	0.508	–	0.372	0.585	0.413	–	–	–	–	–	1.25	–	0.989	0.985	0.529	0.702	–	0.47	0.606	0.481
NCI-H1563	–	–	–	–	–	0.847	1.03	0.881	0.956	0.939	0.866	0.849	0.894	0.873	0.918	–	–	–	–	–
IA-LM	–	–	–	–	–	1.48	–	0.956	1.12	1.3	0.905	–	0.923	1.11	0.546	–	–	–	–	–
NCI-H2342	0.988	0.676	0.749	0.843	0.732	1.13	0.889	1.08	1.05	0.885	–	–	–	–	–	0.746	0.654	0.755	0.773	0.673

— the supplement of paper PMC10307832
